{
  "source": "ChEMBL document CHEMBL1135930",
  "about": "“Identification of nonpeptidic urotensin II receptor antagonists by virtual screening based on a pharmacophore model derived from structure-activity relationships and nuclear magnetic resonance studies on urotensin II” (J Med Chem, 2002)",
  "note": "Activity calls are given as the source filed them. The calls are words filed in the database; no cut-off is given here. Positions of bridges follow the written chain, without caps; N, C: chain ends. Residues, ends and D or L forms follow the SMILES beside them.",
  "data": [
    {"biological_target": "T1, Urotensin-2 receptor (Homo sapiens) (UniProt Q9UKP6)", "T1 sequence (whole entry)": "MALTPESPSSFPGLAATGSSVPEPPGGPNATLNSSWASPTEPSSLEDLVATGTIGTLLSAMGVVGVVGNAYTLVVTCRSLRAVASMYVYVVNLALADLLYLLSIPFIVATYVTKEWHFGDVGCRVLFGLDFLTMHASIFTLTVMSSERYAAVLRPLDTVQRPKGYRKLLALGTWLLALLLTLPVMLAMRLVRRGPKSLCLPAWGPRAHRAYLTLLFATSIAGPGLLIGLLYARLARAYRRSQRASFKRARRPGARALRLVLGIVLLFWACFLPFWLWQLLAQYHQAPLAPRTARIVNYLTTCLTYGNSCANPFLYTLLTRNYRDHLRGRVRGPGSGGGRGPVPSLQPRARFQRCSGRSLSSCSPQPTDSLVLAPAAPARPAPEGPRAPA", "settings": "CHO", "values": [
      {"smiles": "CC(C)[C@H](NC(=O)[C@H](CS)NC(=O)[C@@H](Cc1ccc(O)cc1)NC(=O)[C@H](CCCCN)NC(=O)[C@H](Cc1c[nH]c2ccccc12)NC(=O)[C@H](Cc1ccccc1)NC(=O)[C@H](CS)NC(=O)[C@H](CC(=O)O)NC(=O)[C@H]1CCCN1C(=O)[C@@H](NC(=O)[C@@H](N)CCC(=O)O)[C@@H](C)O)C(=O)O", "NA": "inactive"},
      {"smiles": "CC(C)[C@H](NC(=O)[C@H](CS)NC(=O)[C@H](CCCCN)NC(=O)[C@H](Cc1c[nH]c2ccccc12)NC(=O)[C@H](Cc1ccccc1)NC(=O)[C@H](CS)NC(=O)[C@H](CC(=O)O)NC(=O)[C@H]1CCCN1C(=O)[C@@H](NC(=O)[C@@H](N)CCC(=O)O)[C@@H](C)O)C(=O)O", "NA": "inactive"},
      {"smiles": "CC(C)[C@H](NC(=O)[C@H](CS)NC(=O)[C@H](Cc1ccc(O)cc1)NC(=O)[C@H](Cc1c[nH]c2ccccc12)NC(=O)[C@H](Cc1ccccc1)NC(=O)[C@H](CS)NC(=O)[C@H](CC(=O)O)NC(=O)[C@H]1CCCN1C(=O)[C@@H](NC(=O)[C@@H](N)CCC(=O)O)[C@@H](C)O)C(=O)O", "NA": "inactive"}
    ]},
    {"biological_target": "T2, Urotensin-2 receptor (Homo sapiens, UniProt Q9UKP6)", "T2 sequence (Q9UKP6 whole entry)": "T1 sequence (whole entry)", "test": "(§1) Mobilization of intracellular calcium in CHO cells transiently transfected with human Urotensin 2 receptor", "type": "functional, cell-based", "settings": "not given", "units": {"EC50": "nM"}, "values": [
      {"smiles": "CC(C)[C@H](NC(=O)[C@H](CS)NC(=O)[C@H](Cc1ccc(O)cc1)NC(=O)[C@H](CCCCN)NC(=O)[C@H](Cc1c[nH]c2ccccc12)NC(=O)[C@H](Cc1ccccc1)NC(=O)[C@H](C)NC(=O)[C@H](CC(=O)O)NC(=O)[C@@H]1CCCN1C(=O)[C@@H](NC(=O)[C@@H](N)CCC(=O)O)[C@@H](C)O)C(=O)O", "EC50": 233},
      {"smiles": "CC(C)[C@H](NC(=O)[C@H](CS)NC(=O)[C@H](Cc1ccc(O)cc1)NC(=O)[C@H](CCCCN)NC(=O)[C@H](Cc1c[nH]c2ccccc12)NC(=O)[C@H](Cc1ccccc1)NC(=O)[C@H](CS)NC(=O)[C@H](C)NC(=O)[C@@H]1CCCN1C(=O)[C@@H](NC(=O)[C@@H](N)CCC(=O)O)[C@@H](C)O)C(=O)O", "EC50": 2.7},
      {"smiles": "CC(C)[C@H](NC(=O)[C@H](CS)NC(=O)[C@H](Cc1ccc(O)cc1)NC(=O)[C@H](CCCCN)NC(=O)[C@H](Cc1c[nH]c2ccccc12)NC(=O)[C@H](Cc1ccccc1)NC(=O)[C@H](CS)NC(=O)[C@H](CC(=O)O)NC(=O)[C@@H]1CCCN1C(=O)[C@@H](NC(=O)[C@H](C)N)[C@@H](C)O)C(=O)O", "EC50": 1.8},
      {"smiles": "CC(C)[C@H](NC(=O)[C@H](CS)NC(=O)[C@H](Cc1ccc(O)cc1)NC(=O)[C@H](CCCCN)NC(=O)[C@H](Cc1c[nH]c2ccccc12)NC(=O)[C@H](Cc1ccccc1)NC(=O)[C@H](CS)NC(=O)[C@H](CC(=O)O)NC(=O)[C@@H]1CCCN1C(=O)[C@H](C)NC(=O)[C@@H](N)CCC(=O)O)C(=O)O", "EC50": 3.3},
      {"smiles": "NCCCC[C@H](NC(=O)[C@H](Cc1c[nH]c2ccccc12)NC(=O)[C@H](Cc1ccccc1)NC(=O)[C@@H](N)CS)C(=O)N[C@@H](Cc1ccc(O)cc1)C(=O)N[C@@H](CS)C(N)=O", "note": "(H-CFWKYC-NH2)", "EC50": 2.3},
      {"smiles": "CC(C)[C@H](NC(=O)[C@H](CS)NC(=O)[C@H](Cc1ccc(O)cc1)NC(=O)[C@H](CCCCN)NC(=O)[C@H](Cc1c[nH]c2ccccc12)NC(=O)[C@H](Cc1ccccc1)NC(=O)[C@@H](N)CS)C(=O)O", "note": "(H-CFWKYCV-OH)", "EC50": 1.8},
      {"smiles": "CC(C)[C@H](NC(=O)[C@H](CS)NC(=O)[C@H](Cc1ccc(O)cc1)NC(=O)[C@H](CCCCN)NC(=O)[C@H](Cc1c[nH]c2ccccc12)NC(=O)[C@H](Cc1ccccc1)NC(=O)[C@H](CS)NC(=O)[C@@H](N)CC(=O)O)C(=O)O", "note": "(H-DCFWKYCV-OH)", "EC50": 3},
      {"smiles": "CC(C)[C@H](NC(=O)[C@H](CS)NC(=O)[C@H](Cc1ccc(O)cc1)NC(=O)[C@H](CCCCN)NC(=O)[C@H](Cc1c[nH]c2ccccc12)NC(=O)[C@H](Cc1ccccc1)NC(=O)[C@H](CS)NC(=O)[C@H](CC(=O)O)NC(=O)[C@H](C)NC(=O)[C@@H](NC(=O)[C@@H](N)CCC(=O)O)[C@@H](C)O)C(=O)O", "note": "(H-ETADCFWKYCV-OH)", "EC50": 1.9}
    ]},
    {"biological_target": "T2, Urotensin-2 receptor", "test": "as §1", "type": "functional, cell-based", "settings": "cho", "units": {"EC50": "nM"}, "values": [
      {"smiles": "CC(C)[C@H](NC(=O)[C@@H]1CSSC[C@H](NC(=O)[C@H](CC(=O)O)NC(=O)[C@@H]2CCCN2C(=O)[C@@H](NC(=O)[C@@H](N)CCC(=O)O)[C@@H](C)O)C(=O)N[C@@H](C)C(=O)N[C@@H](Cc2c[nH]c3ccccc23)C(=O)N[C@@H](CCCCN)C(=O)N[C@@H](Cc2ccc(O)cc2)C(=O)N1)C(=O)O", "note": "(H-ETPDCAWKYCV-OH; disulfide 5-10)", "EC50": 5.7},
      {"smiles": "CC(C)[C@H](NC(=O)[C@@H]1CSSC[C@H](NC(=O)[C@H](CC(=O)O)NC(=O)[C@@H]2CCCN2C(=O)[C@@H](NC(=O)[C@@H](N)CCC(=O)O)[C@@H](C)O)C(=O)N[C@@H](Cc2ccccc2)C(=O)N[C@@H](C)C(=O)N[C@@H](CCCCN)C(=O)N[C@@H](Cc2ccc(O)cc2)C(=O)N1)C(=O)O", "note": "(H-ETPDCFAKYCV-OH; disulfide 5-10)", "EC50": 1300},
      {"smiles": "CC(C)[C@H](NC(=O)[C@@H]1CSSC[C@H](NC(=O)[C@H](CC(=O)O)NC(=O)[C@@H]2CCCN2C(=O)[C@@H](NC(=O)[C@@H](N)CCC(=O)O)[C@@H](C)O)C(=O)N[C@@H](Cc2ccccc2)C(=O)N[C@@H](CCCCN)C(=O)N[C@@H](Cc2ccc(O)cc2)C(=O)N1)C(=O)O", "note": "(H-ETPDCFKYCV-OH; disulfide 5-9)", "EC50": "> 10000"},
      {"smiles": "CC(C)[C@H](NC(=O)[C@@H]1CSSC[C@H](NC(=O)[C@H](CC(=O)O)NC(=O)[C@@H]2CCCN2C(=O)[C@@H](NC(=O)[C@@H](N)CCC(=O)O)[C@@H](C)O)C(=O)N[C@@H](Cc2ccccc2)C(=O)N[C@@H](Cc2c[nH]c3ccccc23)C(=O)N[C@@H](C)C(=O)N[C@@H](Cc2ccc(O)cc2)C(=O)N1)C(=O)O", "note": "(H-ETPDCFWAYCV-OH; disulfide 5-10)", "EC50": 14800},
      {"smiles": "CC(C)[C@H](NC(=O)[C@@H]1CSSC[C@H](NC(=O)[C@H](CC(=O)O)NC(=O)[C@@H]2CCCN2C(=O)[C@@H](NC(=O)[C@@H](N)CCC(=O)O)[C@@H](C)O)C(=O)N[C@@H](Cc2ccccc2)C(=O)N[C@@H](Cc2c[nH]c3ccccc23)C(=O)N[C@@H](CCCCN)C(=O)N[C@@H](C)C(=O)N1)C(=O)O", "note": "(H-ETPDCFWKACV-OH; disulfide 5-10)", "EC50": 193},
      {"smiles": "C[C@@H](O)[C@H](NC(=O)[C@@H](N)CCC(=O)O)C(=O)N1CCC[C@H]1C(=O)N[C@@H](CC(=O)O)C(=O)N[C@H]1CSSC[C@@H](C(=O)O)NC(=O)[C@H](Cc2ccc(O)cc2)NC(=O)[C@H](CCCCN)NC(=O)[C@H](Cc2c[nH]c3ccccc23)NC(=O)[C@H](Cc2ccccc2)NC1=O", "note": "(H-ETPDCFWKYC-OH; disulfide 5-10)", "EC50": 1.8},
      {"smiles": "C[C@H](NC(=O)[C@@H]1CSSC[C@H](NC(=O)[C@H](CC(=O)O)NC(=O)[C@@H]2CCCN2C(=O)[C@@H](NC(=O)[C@@H](N)CCC(=O)O)[C@@H](C)O)C(=O)N[C@@H](Cc2ccccc2)C(=O)N[C@@H](Cc2c[nH]c3ccccc23)C(=O)N[C@@H](CCCCN)C(=O)N[C@@H](Cc2ccc(O)cc2)C(=O)N1)C(=O)O", "note": "(H-ETPDCFWKYCA-OH; disulfide 5-10)", "EC50": 3.2},
      {"smiles": "CC(C)[C@H](NC(=O)[C@@H]1CSSC[C@H](NC(=O)[C@H](CC(=O)O)NC(=O)[C@@H]2CCCN2C(=O)[C@@H](NC(=O)[C@@H](N)CCC(=O)O)[C@@H](C)O)C(=O)N[C@@H](Cc2c[nH]c3ccccc23)C(=O)N[C@@H](CCCCN)C(=O)N[C@@H](Cc2ccc(O)cc2)C(=O)N1)C(=O)O", "note": "(H-ETPDCWKYCV-OH; disulfide 5-9)", "EC50": 53},
      {"smiles": "CC(C)[C@H](NC(=O)[C@@H]1CSSC[C@H](NC(=O)[C@H](CC(=O)O)NC(=O)[C@@H]2CCCN2)C(=O)N[C@@H](Cc2ccccc2)C(=O)N[C@@H](Cc2c[nH]c3ccccc23)C(=O)N[C@@H](CCCCN)C(=O)N[C@@H](Cc2ccc(O)cc2)C(=O)N1)C(=O)O", "note": "(H-PDCFWKYCV-OH; disulfide 3-8)", "EC50": 3.6},
      {"smiles": "CC(C)[C@H](NC(=O)[C@@H]1CSSC[C@H](NC(=O)[C@H](CC(=O)O)NC(=O)[C@@H]2CCCN2C(=O)[C@@H](N)[C@@H](C)O)C(=O)N[C@@H](Cc2ccccc2)C(=O)N[C@@H](Cc2c[nH]c3ccccc23)C(=O)N[C@@H](CCCCN)C(=O)N[C@@H](Cc2ccc(O)cc2)C(=O)N1)C(=O)O", "note": "(H-TPDCFWKYCV-OH; disulfide 4-9)", "EC50": 2.4}
    ]}
  ]
}
